The target of assay [1] is T1, N-terminally GST-tagged mTOR (truncated version: amino acids 1360-2549) (Homo sapiens, UniProt P42345).
T1 construct: truncated version: amino acids 1360-2549; purchased Life Technologies PR8683B
The assay can be described thus: In vitro mTOR binding assay (LanthaScreen TR-FRET). To be noted: 3 nM GST-mTOR, 10 nM Tracer 314, 30 min at RT. (In general: Time-resolved FRET reads energy transfer from a long-lived donor to a nearby acceptor.)
Description: A 10-point 4-fold serial dilution (highest concentration at 10 μmol/L and lowest concentration at 40 pmol/L) of each compound was tested for mTOR binding in duplicate in a 384-well plate. […] After 30 min incubation at RT, time-resolved FRET was measured with a Synergy 4 multi-mode microplate reader (Biotek Instruments) using the following settings: 100 microsecs delay before data collection, 200 microsecs time for data collection, 10 measurements per data point.
IC50 values of each compound were determined by plotting the emission ratio versus the compound concentrations (in logarithmic scale) and then by fitting a sigmoidal dose-response curve with variable slope to the data using GraphPad™ Prism.

Assay [2] relates to pS6 S235/S236 in A2058 cells. The experiment in a line: In-cell Western blot, pS6 S235/S236. Type of assay: cell-based. To be noted: Homo sapiens, treated for 1 hour, normalized to α-tubulin.
Description: (§1) Cells are fixed with 4% paraformaldehyde for 30 minutes at room temperature, washed 2 times with 1% BSA in PBS, permeabilized with 0.1% Triton X-100 in PBS/1% BSA for 30 minutes at room temperature and blocked with 5% goat serum in PBS/1% BSA/0.1% Triton X-100 for 30 minutes at room temperature. […] Cells are washed 3 times 5 minutes with PBS/1% BSA/0.1% triton and plate scanned with the Odyssey Infrared Scanning system using both 700 and 800 nm channels. […] To correct for background staining in the data analysis wells are treated only with secondary antibodies.
(§2) For data analysis the mean background signal from channel 700 nm and 800 nm are subtracted from each signal in channel 700 nm and 800 nm, respectively.
(§3) IC50 values of each compound are determined by plotting the normalized pPBK S473 and pS6 S235/S236 signals, respectively, versus the compound concentrations (in logarithmic scale) and then by fitting a sigmoidal dose-response curve with variable slope to the data using GraphPad™ Prism.
A further assay has as its system pPKB S473 in A2058 cells. The assay can be described thus: In-cell Western blot, pPKB S473. Type of assay: cell-based. To be noted: Homo sapiens, treated for 1 hour, normalized to α-tubulin.
Assay [3] concerns S6 phosphorylation (S235/236). The experiment in a line: mTOR signaling in brain samples of pilocarpine pre-treated and naïve mice (western blot). Type of assay: in vivo, mouse. To be noted: for decrease of S6 phosphorylation (S235/236) versus control: brain, 3 hours after single oral dose: Cpd. 3 40 mg/kg, Cpd. 8 25 mg/kg, everolimus 5 mg/kg. Here is the method:
A ramping-up dosing protocol was used which has the advantage that pilocarpine can be individually applied according to the susceptibility of each mouse. Pilocarpine (Sigma-Aldrich, Germany) was administered to female NMRI mice intraperitoneally at a dose of 100 mg/kg (Pilo-SE group). […] To reduce peripheral side effects of pilocarpine, methylscopolamine (Sigma-Aldrich, Germany) was administered 30 minutes prior to the first injection of pilocarpine. Animals were continuously monitored and duration of convulsive SE was registered [referred to Racine's scale. SE onset was defined as continuous ongoing seizure activity following occurrence of one or two generalized tonic-clonic seizures [stage 4 or 5 on the Racine scale]. SE was characterized by head nodding in an upright (sitting) body position, Straub tail, and slight to moderate convulsions of forelimbs, sometimes interrupted by further generalized tonic-clonic seizures. In order to reduce mortality, SE was terminated by diazepam (10 mg/kg i.p.; diazepam-ratiopharm 10, injection solution) 90 min after SE onset. […] In the sham-SE group mice were treated with the same treatment scheme as the pilo-SE group but pilocarpine was replaced by 0.9% sodium chloride solution. The mortality in the pilo-SE model in mice is relatively high (overall about 50%) and can vary markedly between experimental groups/days. Therefore we had to start with a large number of mice for SE induction in order to reliably obtain a group size of 20-22 animals for the MEST.
Brain samples from pilocarpine treated mice and untreated mice were snap frozen and tissue was lysed in buffer containing 25 mM Tris-HCl, pH 8, 50 mM NaCl, 0.5% (w/v) sodium deoxycholate (DOC), and 0.5% (w/v) Triton X-100 and supplemented with complete protease inhibitor (Roche, Mannheim, Germany) and Phosphostop (NEB, USA). Disruption of cell lysates was performed by drawing up the cell suspension twenty times into a syringe with a small gauge needle (21 G) on ice. Protein concentrations in the lysates were determined by using the Pierce BCA Protein Assay kit (Thermo Scientific, Bonn, Germany) according to the manufacturer's instructions. […] Membranes were incubated with primary antibodies anti S6 1:1000, anti S6 Phospho Serin (240/244) 1:1000, anti S6 Phospho Serin (235/236) 1:2000 (NEB) and anti-Actin 1:100 (Sigma-Aldrich) for 1 h in 2% milk in PBST at room temperature (RT) and washed three times for 10 min in PBS-T. Secondary antibodies anti-rabbit-HRP 1:1000 (Dako, Hamburg, Germany) were incubated for 1 h in 2% milk in PBST at RT and washed three times for 10 min in PBST. Proteins were detected by enhanced chemiluminescence using SuperSignal West Femto Chemiluminescent Substrate (Thermo Scientific) and the ChemiDoc system (Bio-Rad, Munich, Germany) with QuantityOne software (Bio-Rad) according to the manufacturer's protocol. Relative protein expressions were quantified densitometrically with QuantityOne (Bio-Rad) software and calculated by normalization to the reference signals of actin with GraphPad Prism software (GraphPad, San Diego, CA, USA).
Pilocarpine pre-treated and naïve mice were treated with a single oral dose of Cpd. 3 (40 mg/kg), Cpd. 8 (25 mg/kg), everolimus (5 mg/kg) or vehicle. 5 mice per group were utilized and sacrificed after 3 hours.
(A western blot detects proteins with antibodies after separation by electrophoresis.)

Assay [4] relates to female NMRI mice, nonepileptic (sham-SE) and epileptic (pilo-SE). The assay can be described thus: Maximal electroshock seizure threshold test (MEST). Type of assay: in vivo, mouse. To be noted: pretreatment 3 h. Here is the method: A total of 166 adult female NMRI mice were used obtained from Charles River (Sulzfeld, Germany) at a weight range of 21-25 g (mice). Animals were kept under the following conditions: Housing: Animals were housed in groups of max. 8 mice under controlled conditions (temperature: 22±1° C.; humidity: 50% 60%/), under a 12-h light-dark cycle (lights on at 6:00 a.m.). Feeding: Standard laboratory chow (Altromin 1324 standard diet, Altromin Spezialfutter GmbH, Lage, Germany) was provided ad libitum. Drinking water: Tap water was provided ad libitum.
The MEST determines a population seizure threshold in groups of ˜20 animals and not the threshold for an individual animal. In the present study, the MEST was determined by a staircase procedure as previously described. A stimulator (BMT Medizintechnik, Berlin, Germany) that delivered a constant current (adjustable from 1-200 mA regardless of the impedance of the animal) with sinusoidal pulses (50/sec) for 0.2 sec was used.
Current administration was performed via bilateral transcorneal stimulation (using copper electrodes). Before transcorneal stimulation, a drop of tetracaine solution (2%) was administered to the eyes of the mouse for local anesthesia. Two minutes later, the mouse was restrained by hand to press the copper electrodes on both corneas while the stimulus was applied by stepping on a foot pedal switch connected with the stimulator. Electrodes were covered with soft leather and soaked with saline before each current application. […] The first stimulation was started with a current near to the control threshold.
3 (HCl): 40/100 mg in 10 ml (Suspension; 5% PEG 400 and 2% Tween 80, HPBCD (10%6)) • Cpd. 8 (HCl): 12.5/25 mg in 10 ml (5% PEG 400 and 2% Tween 80, HPBCD (10%))
Statistical analysis were calculated using Student's t-test. All tests were used two-sided; a P<0.05 was considered significant.
We performed no special tests for the determination of adverse effects. Mice were observed about 30 min after injection in their home cages for obvious sedation or reduction of wellbeing. Five minutes before electrical stimulation mice were again observed in their home cages and two minutes before stimulation during handling procedure for treatment with local anaesthesia. Every obvious variation from normal behavior was noted. Only phenobarbital induced noticeable sedation which lasted for more than 60 min. All other test drugs (including vehicle solutions) were tolerated without any obvious adverse effects.
On the technique in general: The maximal electroshock test induces tonic seizures with an electrical stimulus.

SMILES strings stand for the structures.

One may read the IC50 as the concentration that gives 50% inhibition.

T1 sequence (P42345 1360-2549): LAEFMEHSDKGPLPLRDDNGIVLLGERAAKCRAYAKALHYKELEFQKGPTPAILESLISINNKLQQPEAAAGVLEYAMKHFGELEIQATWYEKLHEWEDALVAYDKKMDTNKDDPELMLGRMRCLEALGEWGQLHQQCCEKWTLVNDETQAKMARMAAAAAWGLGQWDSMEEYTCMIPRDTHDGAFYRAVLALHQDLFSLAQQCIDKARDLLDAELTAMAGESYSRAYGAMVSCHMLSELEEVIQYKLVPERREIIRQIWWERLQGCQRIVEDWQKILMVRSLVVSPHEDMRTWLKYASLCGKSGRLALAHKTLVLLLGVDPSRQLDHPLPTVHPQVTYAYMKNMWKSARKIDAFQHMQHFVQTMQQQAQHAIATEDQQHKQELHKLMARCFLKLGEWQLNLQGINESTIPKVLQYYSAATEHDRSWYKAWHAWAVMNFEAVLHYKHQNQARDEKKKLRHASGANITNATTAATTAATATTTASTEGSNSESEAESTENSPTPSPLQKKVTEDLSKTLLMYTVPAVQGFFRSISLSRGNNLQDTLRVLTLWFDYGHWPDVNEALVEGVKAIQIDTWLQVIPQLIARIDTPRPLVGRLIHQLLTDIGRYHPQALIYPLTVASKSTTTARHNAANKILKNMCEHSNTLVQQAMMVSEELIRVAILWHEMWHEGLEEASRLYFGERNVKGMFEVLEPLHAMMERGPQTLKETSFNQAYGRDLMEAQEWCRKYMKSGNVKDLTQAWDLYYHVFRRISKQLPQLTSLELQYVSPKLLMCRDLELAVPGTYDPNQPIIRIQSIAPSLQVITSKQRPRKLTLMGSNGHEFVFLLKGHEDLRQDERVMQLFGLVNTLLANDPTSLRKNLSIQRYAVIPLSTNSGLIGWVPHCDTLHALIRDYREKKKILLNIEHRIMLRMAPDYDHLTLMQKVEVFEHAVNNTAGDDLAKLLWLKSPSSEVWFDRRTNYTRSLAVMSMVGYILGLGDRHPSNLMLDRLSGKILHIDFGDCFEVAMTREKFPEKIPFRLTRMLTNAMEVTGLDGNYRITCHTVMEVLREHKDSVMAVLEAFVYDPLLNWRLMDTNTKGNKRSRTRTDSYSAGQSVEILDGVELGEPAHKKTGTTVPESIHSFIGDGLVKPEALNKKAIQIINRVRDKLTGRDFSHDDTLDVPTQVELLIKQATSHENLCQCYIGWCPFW
Description for pPKB S473 in A2058 cells: as §1, §2, §3

In turn, `Nc1cc(C(F)(F)F)c(-c2nc(N3CCNCC3)nc(N3CCOCC3)n2)cn1` came in with a half-inhibitory concentration (IC50) in assay [1] of 796 nM.

For `Nc1ncc(-c2nc(N3CCNCC3)nc(N3CCOCC3)n2)c(C(F)(F)F)n1`, the IC50 in assay [1] turned out to be 2830 nM.

In turn, `Nc1cc(C(F)(F)F)c(-c2nc(N3CCOCC3)nc(N3CCSCC3)n2)cn1` registered an IC50 in assay [1] of 118 nM.

With `Nc1ncc(-c2nc(N3CCOCC3)nc(N3CCSCC3)n2)c(C(F)(F)F)n1`, the IC50 in assay [1] is 394 nM.

As for `C[C@@H]1COCCN1c1nc(-c2cnc(N)cc2C(F)F)nc(N2[C@@H](C)COC[C@@H]2C)n1` [Compound 79, 4-(difluoromethyl)-5-[4-[(3S,5S)-3,5-dimethylmorpholin-4-yl]-6-[(3R)-3-methylmorpholin-4-yl]-1,3,5-triazin-2-yl]pyridin-2-amine], the IC50 in assay [2] (A2058, 1 h) was 136 nM; in the assay with pPKB S473 in A2058 cells (A2058, 1 h), 200 nM.

With `C[C@H]1COC[C@H](C)N1c1nc(-c2cnc(N)cc2C(F)F)nc(N2[C@@H](C)COC[C@@H]2C)n1` [Compound 83, 5-[4,6-bis[(3S,5S)-3,5-dimethylmorpholin-4-yl]-1,3,5-triazin-2-yl]-4-(difluoromethyl)pyridin-2-amine], the figures for the concentration for half-maximal inhibition (IC50) (in assay [2]; in the assay on pPKB S473 in A2058 cells) were 294 nM and 379 nM, respectively.

On to `C[C@@H]1COCCN1c1nc(-c2cnc(N)cc2C(F)F)nc(N2CCOCC23CCC3)n1` [Compound 88, 4-(difluoromethyl)-5-[4-[(3R)-3-methylmorpholin-4-yl]-6-(8-oxa-5-azaspiro[3.5]nonan-5-yl)-1,3,5-triazin-2-yl]pyridin-2-amine], for which the IC50 came to 192 nM in assay [2] (A2058, 1 h) and 271 nM with pPKB S473 in A2058 cells (A2058, 1 h).

On to `CO[C@H]1C[C@@H]2CC[C@@H](C)[C@@](O)(O2)C(=O)C(=O)N2CCCC[C@H]2C(=O)O[C@H]([C@H](C)C[C@@H]2CC[C@@H](OCCO)[C@H](OC)C2)CC(=O)[C@H](C)/C=C(\C)[C@@H](O)[C@@H](OC)C(=O)[C@H](C)C[C@H](C)/C=C/C=C/C=C/1C` [everolimus, reference compound], for which the “decrease of S6 phosphorylation (S235/236) versus control” value in assay [3] (epileptic (pilocarpine pre-treated) mice) and in assay [3] (naïve mice) was “No significant changes” each time. For the same molecule, the “S6 phosphorylation / mTOR signaling in brain (FIG. 3B)” value in assay [3] (epileptic/pilocarpine pre-treated and naïve mice, single oral dose) is “did not show significant mTOR signaling inhibition in brain”. The results for the “Threshold difference between nonepileptic and epileptic” value in assay [4] (5 mg/kg everolimus p.o.) and in assay [4] (10 mg/kg everolimus p.o.) were 20% and 1%, respectively. The “Threshold difference between vehicle and drug threshold, epileptic” value in assay [4] (5 mg/kg everolimus p.o.) is recorded as 16%. The entries for the “Threshold difference between vehicle and drug threshold, nonepileptic” value in assay [4] (5 mg/kg everolimus p.o.) and in assay [4] (10 mg/kg everolimus p.o.) were 13% and 10%, respectively.

On to `C[C@H]1COCCN1c1nc(-c2cnc(N)cc2C(F)(F)F)nc(N2CCOCC2)n1` [reference compound], for which the IC50 is 90 nM in assay [2] and 196 nM with pPKB S473 in A2058 cells.

In the case of `C[C@H]1COCCN1c1nc(-c2cnc(N)nc2C(F)(F)F)nc(N2CCOCC2)n1` [reference compound], the IC50 in assay [2] amounted to 164 nM; in the assay on pPKB S473 in A2058 cells, 91 nM.

As to `Nc1cc(C(F)(F)F)c(-c2nc(N3CCOCC3)cc(N3CCOCC3)n2)cn1` [reference compound], the 50% inhibitory concentration (IC50) in assay [2] (A2058, 1 h) stood at 665 nM; in the assay on pPKB S473 in A2058 cells, 555 nM.

Values taken from patent publication US11878972B2, “Treatment of neurological disorders” (TORQUR AG, priority 2016, dated 2024).
